# Results published in US9180116B2, “Difluorolactam compounds as EP4 receptor-selective agonists for use in the treatment of EP4-mediated diseases and conditions” (Cayman Chemical Company, Inc., priority 2012, dated 2015).
# Like-named read-outs stand apart in the source and are kept apart here.
# Assays:
# [1] = biological target: T1, rat EP4 receptor (Rattus norvegicus (Rat), UniProt P43114); experiment: cAMP level assay for EP4 agonist (STEP plate format); format: cell-based; conditions: cAMP readout, EP4; read-out: STEP cell functional assay EC50 cAMP/EP4
# Text: (§1) Functional Cellular Assays (STEP Plate Format)
# Procedure of cAMP Assay for EP2/EP4 Agonist
# (§2) 3. […] In addition each concentration had triplicates.
# 6. Aspirate the supernatant.
# [2] = biological target: rat EP2 receptor (Rattus norvegicus (Rat), UniProt Q62928); experiment: SEAP activity assay for EP2 agonist (STEP plate format); format: cell-based; conditions: read-out: STEP cell functional assay EC50 SEAP/EP2
# Text: as §1
# (§3) Procedure of SEAP Activity Assay for EP2/EP4 Agonist
# as §2
# (§4) 4. […] Cover the plate with the lid.
# [3] = biological target: Human Prostanoid EP4 Receptor (Homo sapiens (Human), UniProt P35408); experiment: Radioligand binding assay, agonist site of human prostanoid EP4 receptor in transfected HEK-293 cells; conditions: human EP4 receptor binding
# Method: Radioligand Binding Assay for the Evaluation of the Affinity of Compounds for the Agonist Site of the Human Prostanoid EP4 Receptor in Transfected HEK-293 Cells
# Following incubation, the samples are filtered rapidly under vacuum through glass fiber filters (GF/B, Packard) presoaked with 0.3% PEI and rinsed several times with ice-cold 50 mM Tris-HCl using a 96-sample cell harvester (Unifilter, Packard). The filters are dried then counted for radioactivity in a scintillation counter (Topcount, Packard) using a scintillation cocktail (Microscint 0, Packard).
# [4] = biological target: T1, rat EP4 receptor; experiment: SEAP activity assay for EP4 agonist (STEP plate format); format: cell-based
# Text: as §1, §3, §2, §4
# T1 sequence (P43114 whole entry): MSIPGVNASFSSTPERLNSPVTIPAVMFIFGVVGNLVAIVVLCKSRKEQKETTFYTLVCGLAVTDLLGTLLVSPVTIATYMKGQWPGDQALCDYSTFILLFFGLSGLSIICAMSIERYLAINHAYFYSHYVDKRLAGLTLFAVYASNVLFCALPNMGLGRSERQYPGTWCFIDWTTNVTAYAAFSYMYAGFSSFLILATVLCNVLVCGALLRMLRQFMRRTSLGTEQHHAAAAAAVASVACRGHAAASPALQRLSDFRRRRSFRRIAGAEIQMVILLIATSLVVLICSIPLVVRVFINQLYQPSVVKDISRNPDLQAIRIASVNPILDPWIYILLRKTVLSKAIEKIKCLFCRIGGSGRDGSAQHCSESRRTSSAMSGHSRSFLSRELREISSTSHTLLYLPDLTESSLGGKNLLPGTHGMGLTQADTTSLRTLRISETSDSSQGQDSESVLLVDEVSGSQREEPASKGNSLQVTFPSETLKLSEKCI
# Chain of rat EP2 receptor (Q62928 whole entry): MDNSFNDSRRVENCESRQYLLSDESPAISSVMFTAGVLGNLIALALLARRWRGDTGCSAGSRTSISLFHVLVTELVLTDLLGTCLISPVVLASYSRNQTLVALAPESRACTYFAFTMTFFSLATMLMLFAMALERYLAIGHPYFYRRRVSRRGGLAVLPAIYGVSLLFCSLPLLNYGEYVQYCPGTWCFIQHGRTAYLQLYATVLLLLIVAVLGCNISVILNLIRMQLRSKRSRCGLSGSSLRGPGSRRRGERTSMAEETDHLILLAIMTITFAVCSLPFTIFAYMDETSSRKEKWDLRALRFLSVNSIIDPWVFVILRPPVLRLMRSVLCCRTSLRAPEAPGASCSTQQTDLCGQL
# Chain of Human Prostanoid EP4 Receptor (P35408 whole entry): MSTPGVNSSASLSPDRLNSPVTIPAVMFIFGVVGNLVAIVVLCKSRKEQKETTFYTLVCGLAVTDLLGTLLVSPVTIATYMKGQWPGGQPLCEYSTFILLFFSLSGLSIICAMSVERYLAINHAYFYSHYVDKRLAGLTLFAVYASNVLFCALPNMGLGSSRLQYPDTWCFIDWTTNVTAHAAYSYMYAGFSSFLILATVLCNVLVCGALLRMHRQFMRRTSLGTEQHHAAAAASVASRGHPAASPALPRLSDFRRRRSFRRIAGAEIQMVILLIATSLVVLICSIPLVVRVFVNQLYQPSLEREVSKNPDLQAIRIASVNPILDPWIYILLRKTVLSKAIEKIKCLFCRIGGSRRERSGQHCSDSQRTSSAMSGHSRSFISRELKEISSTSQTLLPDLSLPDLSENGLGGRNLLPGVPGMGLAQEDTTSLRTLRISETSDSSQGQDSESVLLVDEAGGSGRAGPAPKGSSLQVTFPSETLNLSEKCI
Structure (SMILES),EC50 [1] [nM],"EC50 ([2]; SEAP readout, EP2) [nM]",other results
"COC(=O)c1ccc(CCCN2C(=O)C(F)(F)C[C@@H]2/C=C/[C@@H](O)[C@@H](C)CCc2ccccc2)s1 [Example 37A, methyl 5-(3-((R)-3,3-difluoro-5-((3S,4S,E)-3-hydroxy-4-methyl-6-phenylhex-1-en-1-yl)-2-oxopyrrolidin-1-yl)propyl)thiophene-2-carboxylate]",8.09,–,–
"C[C@@H](CCCCCc1ccccc1)[C@@H](O)/C=C/[C@H]1CC(F)(F)C(=O)N1CCCc1ccc(C(=O)O)s1 [Example 39D, 5-(3-((R)-3,3-difluoro-5-((3R,4S,E)-3-hydroxy-4-methyl-9-phenylnon-1-en-1-yl)-2-oxopyrrolidin-1-yl)propyl)thiophene-2-carboxylic acid]",0.059,79000,–
"CCCCC[C@H](O)/C=C/[C@H]1[C@H](O)CC(=O)[C@@H]1CCCCCCC(=O)O [PGE1, reference compound]",–,–,"EC50 ([2]; SEAP luminescence, 6-8 hours of stimulation): 16.5 nM"
"COC(=O)c1ccc(CCCN2C(=O)C(F)(F)C[C@@H]2/C=C/[C@@H](O)[C@@H](C)CCCCCc2ccccc2)s1 [Example 39A, methyl 5-(3-((R)-3,3-difluoro-5-((3S,4S,E)-3-hydroxy-4-methyl-9-phenylnon-1-en-1-yl)-2-oxopyrrolidin-1-yl)propyl)thiophene-2-carboxylate]",> 1000,–,–
"COC(=O)c1ccc(CCCN2C(=O)C(F)(F)C[C@@H]2/C=C/[C@H](O)[C@@H](C)CCCCc2ccccc2)s1 [Example 38B, methyl 5-(3-((R)-3,3-difluoro-5-((3R,4S,E)-3-hydroxy-4-methyl-8-phenyloct-1-en-1-yl)-2-oxopyrrolidin-1-yl)propyl)thiophene-2-carboxylate]",> 1000,–,–
"C[C@@H](CCCc1ccccc1)[C@H](O)/C=C/[C@H]1CC(F)(F)C(=O)N1CCCc1ccc(C(=O)O)s1 [Example 28C, 5-(3-((R)-3,3-difluoro-5-((3S,4S,E)-3-hydroxy-4-methyl-7-phenylhept-1-en-1-yl)-2-oxopyrrolidin-1-yl)propyl)thiophene-2-carboxylic acid]",0.01 ± 0.021,148 ± 5,IC50 ([3]; read-out: hEP4 receptor binding IC50): 0.74 nM; Ki ([3]; read-out: hEP4 receptor binding Ki): 0.28 nM
"COC(=O)c1ccc(CCCN2C(=O)C(F)(F)C[C@@H]2/C=C/[C@@H](O)[C@@H](C)CCCCc2ccccc2)s1 [Example 38A, methyl 5-(3-((R)-3,3-difluoro-5-((3S,4S,E)-3-hydroxy-4-methyl-8-phenyloct-1-en-1-yl)-2-oxopyrrolidin-1-yl)propyl)thiophene-2-carboxylate]",> 1000,–,–
"COC(=O)c1ccc(CCCN2C(=O)C(F)(F)C[C@@H]2/C=C/[C@@H](O)[C@@H](C)Cc2ccccc2)s1 [Example 36A, methyl 5-(3-((R)-3,3-difluoro-5-((3S,4S,E)-3-hydroxy-4-methyl-5-phenylpent-1-en-1-yl)-2-oxopyrrolidin-1-yl)propyl)thiophene-2-carboxylate]",5.02,–,–
"COC(=O)c1ccc(CCCN2C(=O)C(F)(F)C[C@@H]2/C=C/[C@H](O)[C@@H](C)CCCCCc2ccccc2)s1 [Example 39B, methyl 5-(3-((R)-3,3-difluoro-5-((3R,4S,E)-3-hydroxy-4-methyl-9-phenylnon-1-en-1-yl)-2-oxopyrrolidin-1-yl)propyl)thiophene-2-carboxylate]",> 1000,–,–
"C[C@@H](Cc1ccccc1)[C@H](O)/C=C/[C@H]1CC(F)(F)C(=O)N1CCCc1ccc(C(=O)O)s1 [Example 36C, 5-(3-((R)-3,3-difluoro-5-((3S,4S,E)-3-hydroxy-4-methyl-5-phenylpent-1-en-1-yl)-2-oxopyrrolidin-1-yl)propyl)thiophene-2-carboxylic acid]",0.038,1000,–
"C[C@@H](CCCc1ccccc1)[C@@H](O)/C=C/[C@H]1CC(F)(F)C(=O)N1CCCc1ccc(C(=O)O)s1 [Example 28D, 5-(3-((R)-3,3-difluoro-5-((3R,4S,E)-3-hydroxy-4-methyl-7-phenylhept-1-en-1-yl)-2-oxopyrrolidin-1-yl)propyl)thiophene-2-carboxylic acid]",5.68,–,–
"COC(=O)c1ccc(CCCN2C(=O)C(F)(F)C[C@@H]2/C=C/[C@H](O)[C@H](C)CCCc2ccccc2)s1 [Example 28F, methyl 5-(3-((R)-3,3-difluoro-5-((3R,4R,E)-3-hydroxy-4-methyl-7-phenylhept-1-en-1-yl)-2-oxopyrrolidin-1-yl)propyl)thiphene-2-carboxylate]",> 1000,–,–
"C[C@@H](CCCCc1ccccc1)[C@@H](O)/C=C/[C@H]1CC(F)(F)C(=O)N1CCCc1ccc(C(=O)O)s1 [Example 38D, 5-(3-((R)-3,3-difluoro-5-((3R,4S,E)-3-hydroxy-4-methyl-8-phenyloct-1-en-1-yl)-2-oxopyrrolidin-1-yl)propyl)thiophene-2-carboxylic acid]",0.37,> 10000,–
"C[C@@H](c1ccccc1)[C@H](O)/C=C/[C@H]1CC(F)(F)C(=O)N1CCCc1ccc(C(=O)O)s1 [Example 35C, 5-(3-((R)-3,3-difluoro-5-((3R,4S,E)-3-hydroxy-4-phenylpent-1-en-1-yl)-2-oxopyrrolidin-1-yl)propyl)thiophene-2-carboxylic acid]",62,–,–
"C[C@@H](CCCCCc1ccccc1)[C@H](O)/C=C/[C@H]1CC(F)(F)C(=O)N1CCCc1ccc(C(=O)O)s1 [Example 39C, 5-(3-((R)-3,3-difluoro-5-((3S,4S,E)-3-hydroxy-4-methyl-9-phenylnon-1-en-1-yl)-2-oxopyrrolidin-1-yl)propyl)thiophene-2-carboxylic acid]",–,1020,–
"COC(=O)c1ccc(CCCN2C(=O)C(F)(F)C[C@@H]2/C=C/[C@H](O)[C@@H](C)Cc2ccccc2)s1 [Example 36B, methyl 5-(3-((R)-3,3-difluoro-5-((3R,4S,E)-3-hydroxy-4-methyl-5-phenylpent-1-en-1-yl)-2-oxopyrrolidin-1-yl)propyl)thiophene-2-carboxylate]",> 1000,–,–
"C[C@H](CCCc1ccccc1)[C@@H](O)/C=C/[C@H]1CC(F)(F)C(=O)N1CCCc1ccc(C(=O)O)s1 [Example 28H, 5-(3-((R)-3,3-difluoro-5-((3R,4R,E)-3-hydroxy-4-methyl-7-phenylhept-1-en-1-yl)-2-oxopyrrolidin-1-yl)propyl)thiphene-2-carboxylic acid]",3.15,–,–
"C[C@@H](CCCCc1ccccc1)[C@H](O)/C=C/[C@H]1CC(F)(F)C(=O)N1CCCc1ccc(C(=O)O)s1 [Example 38C, 5-(3-((R)-3,3-difluoro-5-((3S,4S,E)-3-hydroxy-4-methyl-8-phenyloct-1-en-1-yl)-2-oxopyrrolidin-1-yl)propyl)thiophene-2-carboxylic acid]",–,157,–
"C[C@H](CCCc1ccccc1)[C@H](O)/C=C/[C@H]1CC(F)(F)C(=O)N1CCCc1ccc(C(=O)O)s1 [Example 28G, 5-(3-((R)-3,3-difluoro-5-((3S,4R,E)-3-hydroxy-4-methyl-7-phenylhept-1-en-1-yl)-2-oxopyrrolidin-1-yl)propyl)thiphene-2-carboxylic acid]",0.0162,65,–
